Patent KR20120090118A, “자귀나무 추출물을 포함하는 항암 또는 항암 보조용 조성물” (학교법인 동의학원, priority 2010, dated 2012)

How the values were obtained:
[1] = system: human Jurkat T cells [Human Jurkat T세포]; assay: Combination of Julibroside III and doxorubicin: cytotoxicity (MTT assay, 48 h) and FIC in Jurkat T cells; type: cell-based
[2] = system: mouse liver or kidney [마우스의 간이나 신장]; assay: Safety in mice: histological signs of toxicity in liver or kidney (in vivo sarcoma experiment); conditions: up to 100mg/kg
[3] = doxorubicin and Julibroside III used in combination

Row | Compound | IC50 [1, 3] | IC50 ([1]; treated alone) | histological signs of toxicity in liver or kidney [2]
1 | COc1cccc2c1C(=O)c1c(O)c3c(c(O)c1C2=O)C[C@@](O)(C(=O)CO)C[C@@H]3O[C@H]1C[C@H](N)[C@H](O)[C@H](C)O1 [독소루비신, reference compound] | 0.16 µg/mL | 0.31 µg/mL | –
2 | C=C[C@](C)(CC/C=C(\C)C(=O)O[C@H]1[C@H](O)[C@@H](O)[C@H](O[C@](C)(C=C)CC/C=C(\C)C(=O)O[C@H]2C[C@]3(C(=O)O[C@@H]4O[C@H](CO)[C@@H](O)[C@H](O)[C@H]4O[C@@H]4O[C@@H](C)[C@H](O[C@@H]5O[C@@H](CO)[C@H](O)[C@H]5O)[C@@H](O[C@@H]5O[C@H](CO)[C@@H](O)[C@H](O)[C@H]5O)[C@H]4O)[C@H](O)C[C@]4(C)C(=CC[C@@H]5[C@@]6(C)CC[C@H](O[C@@H]7O[C@H](CO[C@@H]8O[C@H](C)[C@H](O)[C@H](O)[C@H]8O[C@@H]8OC[C@@H](O)[C@H](O)[C@H]8O)[C@@H](O)[C@H](O)[C@H]7NC(C)=O)C(C)(C)[C@@H]6CC[C@]54C)[C@@H]3CC2(C)C)O[C@@H]1C)O[C@@H]1O[C@H](C)[C@@H](O)[C@H](O)[C@H]1O [Julibroside III] | 0.63 µg/mL | 2.5 µg/mL | 징후가 전혀 없음
